Experimental data reported in US7776572B2, “Method for reducing loss of enzyme activity during storage” (Corning Incorporated, priority 1996, dated 2010).
Where two headings read alike, the source gives them in different places.

Key:
rat = conditions: cited from earlier work
IgG = assay: IgG/Au staining of coated polystyrene, type of endgroups
Procedure: Except where indicated, the non-ionic surfactants were applied to the hydrophobic surfaces being tested as a 0.1% (weight/volume) solution in isopropanol. A sufficient amount of coating solution was used to cover the surface being testing with a thin layer of the solution (e.g., 25 μl of the solution per well for a standard 24-well plate). In some cases, the solution was applied to surface by spraying; in others, it was poured onto the surface (into the well). Except where indicated, coated samples were either dried at 70° C. for 30 minutes in an air circulated oven or dried at room temperature overnight to evaporate the isopropanol. Protein binding was determined in some examples using a colloidal gold straining procedure. In accordance with this procedure, colloidal gold becomes electrostatically attached to bound protein and is detected by measuring absorbance at 550 nanometers. Bio-Rad Laboratories' Colloidal Gold Total Protein Stain was used for this purpose, with absorbance being measured with a Cambridge Technologies Plate Reader (No. 7520). The non-ionic surfactants listed in Table 6 were tested for their ability to produce a low binding surface using the techniques described in Materials and Methods. Polystyrene was used as the hydrophobic test surface and IgG/Au staining was used as the readout.

BSA = assay: Polymer blends molded into petri dishes, BSA binding by colloidal gold; conditions: blended at 5% into polystyrene
Procedure: (§1) Low binding non-ionic surfactant molecules were blended at 5% (except as noted in Table 13) into a base polymer using a twin screw extruder, then injection molded into the shape of 35 mm petri dishes. Proteins tested were BSA and Fetal Bovine Serum (FBS). Protein binding was determined using a colloidal gold staining procedure as described above. In the case of the polypropylene and EVA blends, a silver enhancer was used (Sigma Chem. Co., St, Louis, Mo., Kit #SE-100).

Fetal Bovine Serum (FBS) = assay: Polymer blends molded into petri dishes, FBS protein binding by colloidal gold; conditions: blended at 5% into polystyrene
Procedure: as §1

HRP-Goat A'Mouse IgG = assay: Enzymatic determination of protein binding to coated medium binding polystyrene plate; conditions: coated medium binding PS; versus uncoated high binding polystyrene plate; absorbance 405 nm
Procedure: The surfactants were coated onto a medium binding polystyrene plate (Corning Costar No. 2587) as described in Material and Methods. A medium binding polystyrene plate (Corning Costar No. 2587) and a high binding polystyrene plate (Corning Costar No. 2581) were used as controls.
(a) HRP-Goat A'Mouse IgG: Kirkegaard & Perry Laboratories, Inc. Catalog No. 074-1806. Stock solution: 0.5 mg/ml; working concentration: 0.04 μg/ml. The working concentration was obtained by adding 11 μl of the stock solution per 25 mls of PBS pH 7.4 to produce a work stock (WS), and then diluting 1:6 (i.e., 10 mls WS+50 mls PBS pH 7.4).
(1) 100 μl-well of HRP-Goat A'Mouse IgG at a concentration of 0.04 μg/ml were added to the test wells and incubated for 1 hour at room temperature.
(2) The wells were then washed 5 times with the 1M wash solution. Each wash include a 5 minute soak followed by decanting.
(3) 100 μl/well of substrate (30 mls ABTS+30 mls H2O2) were added to the test wells and incubated for 15 minutes at room temperature in the dark.
(4) 100 μl/well of stopping solution (1% SDS) were added to the test wells.
(5) The plates were then shaken and read at 405 nm.
(6) Reduction in binding was determined by comparing the absorbance measured in step (5) with the absorbance measured for a high binding polystyrene plate which had not been treated with a non-ionic surfactant but otherwise subjected to steps (1) to (5).

Compound: O=[As]O[As]=O (centres unmarked) [As2O3, reference compound]
- LD50 (rat): 0.02 grams/Kg

Compound: PEO(400) DI-STEARATE
- Bound Protein Absorbance at 550 nm (IgG): 0.10

Compound: SORBITOL TRI-STEARATE
- Bound Protein Absorbance (550 nm) BSA (BSA): 0.005
- Bound Protein Absorbance (550 nm) FBS (Fetal Bovine Serum (FBS)): 0.008

Compound: PEO(200) DI-OLEATE
- Bound Protein Absorbance at 550 nm (IgG): 0.15

Compound: CCCCCCCC/C=C\CCCCCCCC(=O)OCC(O)CO (centres unmarked) [GLYCEROL MONO-OLEATE]
- % Reduction in Protein Binding (HRP-Goat A'Mouse IgG): 92.4%

Compound: [Cl-].[Na+] [NaCl, reference compound]
- LD50 (rat; in vivo): 4 grams/Kg

Compound: PEO(400) DI-OLEATE
- Bound Protein Absorbance at 550 nm (IgG): 0.15
